The results in this text go back to patent US20240425464A1, “Substituted Monohydrazides as Potent Antifungal Agents” (University of Kentucky Research Foundation, priority 2023, published 2024).

For experiment [1], the system named is panel of ten C. auris strains (AR Bank #381-390). The experiment in a line: MIC determination, summary over the C. auris panel. The format is cell-based, Candida auris. To be noted: Candidozyma auris; against all ten C. auris strains tested (AR Bank #381-390). The protocol: (§1) The antifungal agent amphotericin B (AmB) was purchased from VWR (Radnor PA, USA). AmB was dissolved in DMSO at a final concentration of 5 mg/mL and was stored at −20° C., protected from light. Candida albicans American Type Culture Collection (ATCC) 10231 (strain A), C. albicans ATCC 64124 (B), and C. albicans ATCC MYA-2876 (C) were obtained from Utah State University. C. albicans ATCC 90819 (D), C. albicans ATCC MYA-2310 (E), C. albicans ATCC MYA-1237 (F), C. albicans ATCC MYA-1003 (G), Candida glabrata ATCC 2001 (H), Candida krusei ATCC 6258 (I), Candida parapsilosis ATCC 22019 (J), Cryptococcus neoformans ATCC MYA-895 (M), Aspergillus terreus ATCC MYA-3633 (N), and Aspergillus flavus ATCC MYA-3631 (0) were obtained from the American Type Culture Collection (ATCC; Manassas, VA, USA). Aspergillus nidulans ATCC 38163 (P) was obtained from University of Kentucky. Clinically derived Aspergillus fumigatus NRRL 163 (Q), A. fumigatus NRRL 5109 (R), and A. fumigatus NRRL 6113 (S) were obtained from Northern Regional Research Laboratory (NRRL). Candida auris 384 (K), C. auris 390 (L), and fungal strains 381-400 (including 10 C. auris (AR Bank #381-390), 3 Candida duobushaemulonii (AR Bank #391, AR Bank #392, and AR Bank #394), 2 Candida haemulonii (AR Bank #393 and AR Bank #395), 1 Kodameae ohmeri (AR Bank #396), 1 C. krusei (AR Bank #397), 1 Candida lusitaniae (AR Bank #398), and 2 Saccharomyces cerevisiae strains (AR Bank #399 and AR Bank #400)) were part of a larger fungal library from the AR Bank maintained by the Centers for Disease Control and Prevention (CDC; Atlanta, GA, USA). Filamentous fungi and yeasts were cultivated at 35° C. in RPMI 1640 medium (with L-glutamine, without sodium bicarbonate, Sigma-Aldrich, St. Louis, MO) buffered to a pH of 7.0 with 0.165 M morpholinepropanesulfonic acid (MOPS) buffer (Sigma-Aldrich). For cytotoxicity assays, HepG2 and the mouse macrophage cell line J774A.1 were obtained from University of Kentucky. The human embryonic kidney cell line, HEK-293, was bought from the ATCC. Mammalian cells were grown in Dulbecco's Modified Eagle's Medium (DMEM) (from VWR) with 10% fetal bovine serum (FBS) (from VWR) and 1% Pen/Strep (from ATCC). Cell lines were cultured at 37° C. with 5% CO2 and passaged by trypsinization with 0.05% trypsin: 0.53 mM EDTA (from Sigma-Aldrich).
(§2) From the actively growing yeast culture, 100 µL were then transferred to 900 μL of RPMI 1640 medium and re-adjusted to achieve OD600 of 0.12 (˜1×10^6 CFU/mL). The cell suspension was further diluted to achieve 1:100 in RPMI 1640 medium.

Experiment [2] deals with C. auris AR Bank #382. The experiment in a line: MIC determination by in vitro antifungal assay. The format is cell-based, Candida auris. To be noted: Candidozyma auris; C. auris AR Bank # 382 (Table 2B); read-out: MIC. The procedure: as §1, §2
In experiment [3] the test system is C. auris AR Bank #387. Nature of the experiment: MIC determination by in vitro antifungal assay. It is filed as cell-based, Candida auris. The conditions noted are these: Candidozyma auris; C. auris AR Bank # 387 (Table 2B); read-out: MIC. The protocol:
as §1, §2

Experiment [4] deals with C. auris AR Bank #383. Nature of the experiment: MIC determination by in vitro antifungal assay. It is filed as cell-based, Candida auris. The conditions noted are these: Candidozyma auris; C. auris AR Bank # 383 (Table 2B); read-out: MIC. The protocol: as §1, §2
Experiment [5] relates to C. auris AR Bank #385. The experiment in a line: MIC determination by in vitro antifungal assay. It is filed as cell-based, Candida auris. To be noted: Candidozyma auris; C. auris AR Bank # 385 (Table 2B); read-out: MIC. The procedure:
as §1, §2

Experiment [6] deals with C. auris AR Bank #388. The experiment in a line: MIC determination by in vitro antifungal assay. The format is cell-based, Candida auris. To be noted: Candidozyma auris; C. auris AR Bank # 388 (Table 2B); read-out: MIC. The protocol: as §1, §2
Experiment [7] has as its system C. auris AR Bank #381. The experiment in a line: MIC determination by in vitro antifungal assay. It is filed as cell-based, Candida auris. The conditions noted are these: Candidozyma auris; C. auris AR Bank # 381 (Table 2B); read-out: MIC. The protocol:
as §1, §2

The test system of experiment [8] is C. auris AR Bank #389. Nature of the experiment: MIC determination by in vitro antifungal assay. To be noted: Candidozyma auris; C. auris AR Bank # 389 (Table 2B); read-out: MIC. It is filed as cell-based, Candida auris. The procedure:
as §1, §2

In experiment [9] the test system is C. auris AR Bank #386. Nature of the experiment: MIC determination by in vitro antifungal assay. The format is cell-based, Candida auris. The conditions noted are these: Candidozyma auris; C. auris AR Bank # 386 (Table 2B); read-out: MIC. The protocol: as §1, §2
Experiment [10] concerns C. auris strain AR Bank #390 (L). The experiment in a line: MIC determination by in vitro antifungal assay. The format is cell-based, Candida auris. To be noted: Candidozyma auris, C. auris AR Bank # 390 (L) (Table 2B); read-out: MIC. The protocol: as §1, §2
(§3) Finally, the activity of these monohydrazides was explored against […] non-Candida strains: Cryptococcus neoformans ATCC MYA-895 (M), Aspergillus terreus ATCC MYA-3633 (N), Aspergillus flavus ATCC MYA-3631 (O), Aspergillus nidulans ATCC 38163 (P), Aspergillus fumigatus NRRL 163 (Q), A. fumigatus NRRL 5109 (R), and A. fumigatus NRRL 6113 (S) (Tables 1A and 1B). The double dilution method was used with concentrations ranging from 0.06 to 31.3 j·tg mL^−1 for monohydrazides 1a-9j, and the commercially available positive antifungal control amphotericin B (AmB).

Experiment [11] concerns Candida auris strain AR Bank #384 (K). The experiment in a line: MIC determination by in vitro antifungal assay. It is filed as cell-based. To be noted: Candidozyma auris, C. auris AR Bank # 384 (K) (Table 2B); read-out: MIC. The protocol:
as §1, §2, §3

Converted amounts (≈) assume the structure as drawn.

As for `COc1cccc(NNC(=O)c2cccc(F)n2)c1` [Compound 5c], the minimum inhibitory concentration (MIC) (commonly the lowest concentration found to suppress growth) in [1] was 0.12 to 7.8 µg/mL (≈ 0.459 to 29.9 µM); in [2], 0.49 µg/mL (≈ 1.88 µM); in [3] it was 0.49 µg/mL (≈ 1.88 µM); in experiment [4], 1.95 µg/mL (≈ 7.46 µM); in [5] it was 0.98 µg/mL (≈ 3.75 µM); in [6], 0.98 µg/mL (≈ 3.75 µM). For the same compound, the MIC in experiment [7] was 0.98 µg/mL (≈ 3.75 µM); in [8], 0.98 µg/mL (≈ 3.75 µM); in [9], 0.98 µg/mL (≈ 3.75 µM); in experiment [10], 3.9 µg/mL (≈ 14.9 µM); in [11], 0.49 µg/mL (≈ 1.88 µM).
